The results in this text go back to ChEMBL document CHEMBL3351377, “Scaffold hopping towards potent and selective JAK3 inhibitors: discovery of novel C-5 substituted pyrrolopyrazines” (Bioorg Med Chem Lett, 2014).

Structures are written as SMILES.

This experiment addresses Tyrosine-protein kinase JAK1 (Homo sapiens, UniProt P23458).

Broadly, the IC50 is the midpoint of a concentration-inhibition curve. Low values mean inhibition by little substance, high ones a need for much substance. The compound `CC[C@H](CO)Nc1ncc(-c2cnc3[nH]ccc3n2)c(N[C@H]2CCCN(S(C)(=O)=O)C2)n1` came in with an IC50 of 287 nM.
As for `CN1CCN(c2ncc(-c3cnc4[nH]ccc4n3)c(N[C@H]3CCCN(S(C)(=O)=O)C3)n2)CC1`, the IC50 turned out to be 189 nM.
